According to patent EP4775580A1, “COMPOUND, PHARMACEUTICAL COMPOSITION COMPRISING SAME, AND USE THEREOF” (Euregen Biopharma Co., Ltd., priority 2023, dated 2025):
Where a chain is given by its changes, count along the chain named.

Experiments:
Conditions in all cases: FP, 8 nM Menin, 4 nM MLL peptide
Menin-G331R = molecular target: T1, Menin-G331R (Homo sapiens, UniProt O00255, G326R); assay: Fluorescence polarization assay of Menin binding to MLL peptide, G331R mutant
T1 sequence (O00255 1-615 isoform O00255-1 G331R): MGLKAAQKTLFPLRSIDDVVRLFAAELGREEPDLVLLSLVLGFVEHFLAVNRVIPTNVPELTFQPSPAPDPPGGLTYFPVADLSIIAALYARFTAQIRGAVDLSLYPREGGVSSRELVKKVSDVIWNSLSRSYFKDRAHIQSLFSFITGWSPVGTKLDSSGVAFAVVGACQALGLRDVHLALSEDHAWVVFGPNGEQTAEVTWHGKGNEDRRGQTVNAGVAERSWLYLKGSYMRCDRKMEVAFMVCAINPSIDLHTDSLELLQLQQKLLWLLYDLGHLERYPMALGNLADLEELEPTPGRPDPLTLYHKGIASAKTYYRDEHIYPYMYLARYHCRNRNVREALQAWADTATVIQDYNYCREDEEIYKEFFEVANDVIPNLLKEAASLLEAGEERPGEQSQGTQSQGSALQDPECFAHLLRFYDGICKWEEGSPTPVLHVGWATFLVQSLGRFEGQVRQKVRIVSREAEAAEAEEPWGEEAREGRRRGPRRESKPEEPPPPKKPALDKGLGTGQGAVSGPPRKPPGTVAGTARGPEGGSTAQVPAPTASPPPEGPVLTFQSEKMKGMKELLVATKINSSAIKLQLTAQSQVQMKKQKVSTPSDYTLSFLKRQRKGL
Source text: (§1) • 1. Objective: To evaluate the inhibitory activity of compounds against wild-type Menin protein (Menin-WT) and its mutant variants (Menin-M327V, Menin-M327I, Menin-T349M, Menin-S160T, Menin-S160C, Menin-G331R, and Menin-G331D). • 2. Experimental Principle: The experiment employed fluorescence polarization (FP) to detect the binding of wild-type Menin protein and its mutant variants to MLL peptide. In the absence of inhibitors, binding of wild-type Menin protein and its mutant variants to MLL peptide generates a high FP signal; upon addition of inhibitors, the binding between Menin proteins and MLL peptide is disrupted, resulting in a low FP signal. • 3. Experimental Materials: Final concentration of wild-type Menin protein and its mutant variants: 8 nM; final concentration of MLL peptide: 4 nM. Assay buffer: 50 mM Tris-HCl (pH 8.0), 120 mM NaCl, 0.005% CA-630, 2 mM DTT. • 4. […] The plate was centrifuged at 1000 rpm for 60 seconds. Subsequently, 10 µL of MLL peptide was added to each assay well. The plate was centrifuged at 1000 rpm for 60 seconds and sealed with a sealing membrane. After incubation at 23°C for 60 minutes, the plate was read using a PerkinElmer Envision reader. Data Analysis: [formula]
(§2) Curve fitting: XLFIT software was used for curve fitting, employing a four-parameter logistic model with percent inhibition versus log(compound concentration) as variables.

Menin-M327I = molecular target: T2, Menin-M327I (Homo sapiens, UniProt O00255, M322I); assay: Fluorescence polarization assay of Menin binding to MLL peptide, M327I mutant
T2 sequence (O00255 1-615 isoform O00255-1 M327I): T1 sequence (O00255 1-615 isoform O00255-1 G331R) with M327I, R331G
Source text: as §1, §2

[1] = molecular target: T3, wild-type Menin protein (Menin-WT) (Homo sapiens, UniProt O00255); assay: Fluorescence polarization assay of Menin binding to MLL peptide, wild type
T3 sequence (O00255 1-615 isoform O00255-1): T1 sequence (O00255 1-615 isoform O00255-1 G331R) with R331G
Source text: as §1, §2

| SMILES | IC50 (Menin-G331R) [nM] | IC50 (Menin-M327I) [nM] | IC50 [1] [nM] |
| --- | --- | --- | --- |
| CCN(C(=O)c1cc(F)ccc1N1CCN([C@@H]2CCN([C@H](CCCN(C)CCOC)C(C)C)C2)c2ncncc21)C(C)C [Example 3] | 36.7 | 40.7 | 13 |
| CCN(C(=O)c1cc(F)ccc1Oc1cncnc1N1CC2(CCN(C[C@H]3CC[C@H](NS(=O)(=O)CC)CC3)CC2)C1)C(C)C [SNDX-5613, revumenib] | 101 | 928 | 17.6 |
